Values of other authors, collected in patent publication US20250288673A1, “GENE THERAPY FOR THE TREATMENT OF ACTIVATED PI3KINASE DELTA SYNDROME TYPE 1 (APDS1)” (Cellectis SA, priority 2022, published 2025).

Key:
[1] = after administration; cited from earlier work
PI3Kδ = conditions: APDS1 treatment; cited from earlier work

Row | Structure (SMILES) | side effects outside of the immune system [1] | effect on lymphadenopathy and immune B cell subpopulations (PI3Kδ)
1 | [O-][n+]1cccc(-c2nc3c(Cl)cccc3cc2[C@@H](Nc2ncnc3cccnc23)C(F)(F)F)c1 [Seletalisib] | liver toxicity | reduction in lymphadenopathy and normalization of immune B cell subpopulations
2 | CO[C@H]1C[C@@H]2CC[C@@H](C)[C@@](O)(O2)C(=O)C(=O)N2CCCC[C@H]2C(=O)O[C@H]([C@H](C)C[C@@H]2CC[C@@H](O)[C@H](OC)C2)CC(=O)[C@H](C)/C=C(\C)[C@@H](O)[C@@H](OC)C(=O)[C@H](C)C[C@H](C)/C=C/C=C/C=C/1C [Rapamycin] | proteinuria was observed | –
